From patent US8383582B2, “Inhibitor against forming biofilm comprising κ-casein macropeptide” (Industry Foundation of Chonnam National University, priority 2010, dated 2013)

What was measured:
[1] = tested on: L. monocytogenes Scott A biofilm cells; assay: Two-dimensional gel electrophoresis / LC-MS/MS of biofilm cell protein extracts; assay type: cell-based, Listeria monocytogenes
Description: This biofilm formation protocol was adapted from that used for the microtiter plate assay in this invention, to obtain a sufficient quantity of biofilm cells for two-dimensional gel electrophoresis (2-DE). Biofilms were prepared by using a slight modification of a previously described method (Ren et al., 2004). L. monocytogenes was grown in TSBYE overnight, and a 2.5 ml overnight culture was washed twice with PBS. Then, the cells were inoculated into a 250-ml shake flask containing 100 ml fresh MWB with or without the effective concentration of CMP on 10 g sterilized glass wool (Pyrex fiber glass; Corning, N.Y., USA). The cells were incubated with shaking (250 rpm in a shaking incubator; Vision Scientific Co., Ltd., Korea) at 30° C. to form a biofilm on the glass wool. After 24 h inoculation, the glass wool was retrieved from the culture, and quickly and gently washed twice in 100 ml of 0.85% sodium chloride buffer (within 30 s) at 4° C. The biofilm cells were removed from the glass wool by sonication in 200 ml of 0.85% sodium chloride buffer at 4° C. for 2 min. The buffer was then centrifuged (8,000×g in a VS-21S MT centrifuge; Vision Scientific Co., Ltd.) for 10 min at 4° C. to precipitate the biofilm cells. These cells were washed twice by centrifugation (8,000×g, 10 min, 4° C.) with 0.85% sodium chloride buffer; the cell pellets were flash-frozen in liquid nitrogen. While sonicating, suspended biofilm cells with an optical density at 600 nm of 2 were harvested by centrifugation (8,000×g) at room temperature for 10 min in an Eppendorf tube. The cell pellets were then flash-frozen in liquid nitrogen and kept at −80° C. until protein extraction.
The biofilm cells harvested from the glass wool were suspended in the same lysis buffer (TE buffer; 40 mM Tris, 1 mM EDTA, pH 8.0) and lysed by using Ultraschallprozessor UP200S (amplification 70, 0.5 cycle; Dr. Hielscher GmbH) 20 times for 30 s on ice. Following sonication, the unlysed cells, cell debris, and glass fibers were removed by centrifugation (8,000×g, 4° C.), and the supernatant fluids were recovered.
Protein samples were precipitated by using the phenol protocol of Hanna et al. (2000). The protein concentration was determined by using the modified Bradford assay method (Ramagli, 1999). The protein samples were stored at −80° C. until proteomic analysis.
The method described by Kim et al. (2006) with slight modifications was used for 2-DE. In the first dimension of isoelectric focusing (IEF), precast immobilized pH gradient (IPG) strips, with a nonlinear gradient from pH 3 to 10 (Bio-Rad Laboratories, Richmond, Calif., USA), were rehydrated for 12-18 h with 500 μg of protein in 300 μl of rehydration buffer (8 M urea, 2% CHAPS, 50 mM DTT, 10% isopropanol, 5% glycerol, 0.002% bromophenol blue, 0.2% ampholytes, water). In accordance with the manufacturer's instructions, focusing was performed by using a Protean IEF cell system (Bio-Rad Laboratories) at 20° C. under 60,000 Vh. After IEF, the strips were incubated for 10 min in equilibration buffer I (6 M urea, 2% SDS, 20% glycerol, 130 mM DTT, 0.375 M Tris-HCl [pH 8.8]), followed by another 10 min in equilibration buffer II (6 M urea, 2% SDS, 20% glycerol, 135 mM iodoacetamide, 0.375 M Tris-HCl [pH 8.8]). After equilibration, the strips were transferred to 12.5% sodium dodecyl sulfate (SDS)-polyacrylamide gels (20×22 cm) for running in the second dimension.
The proteins were separated by using a Protean II xi system (Bio-Rad Laboratories) with 20 mA per gel at 4° C. The protein spots were visualized by blue-silver staining (Candiano et al., 2004). The stained gels were then scanned with a densitometric scanner (UTA 2100XL; UMAX, Dallas, Tex., USA), and the spots were analyzed by using the PDQuest software (Bio-Rad Laboratories) in accordance with the manufacturer's instructions. Four gels resulting from two independent experiments were obtained, and two gels of good quality were used for analysis. […]

[2] = tested on: L. monocytogenes Scott A to AGS cell; assay: Adhesion analysis on AGS cells; assay type: cell-based, Listeria monocytogenes; settings: CMP 0.4 mg/ml, at the lower MOI, 30 min 37° C.
Description: The human intestinal epithelial cell line HT-29 and the human gastric epithelial cell line AGS were purchased from the Korea Cell Line Bank (KCLB; Seoul, Korea). HT-29 cells have been extensively used as a model system for studying interaction of enteric pathogens with intestinal epithelial cells. All media and fetal bovine serum (FBS) were obtained from Gibco BRL (Life Technologies Inc., Grand Island, N.Y., USA) and JBI (Jeil Biotech services Inc., Seoul, Korea). The HT-29 and AGS cells were grown in RPMI-1640 medium which was supplemented with 10% heat-inactivated FBS. The cells were routinely cultured at 37° C. in 5% CO2 incubator with 6-well or 12-well tissue culture plates for adhesion and invasion assays and in 100-mm-diameter tissue culture plates for RNA isolation.
Prior to the adhesion assay, the HT-29 and the AGS cells monolayers were washed three times in pre-warm PBS (25° C.) to remove any culture medium and non-attached cells. The adhesion assays were performed using L. monocytogenes Scott A according to the method of Hagman et al. (1999) with modifications. Bacteria were grown overnight at 37° C. in TSBYE. […]

[3] = presence of 0.4 mg/ml CMP vs absence

κ-casein macropeptide [CMP]
protein spots with increase or decrease in amounts compared to the control ([1]; 0.4 mg/ml CMP, about 320 spots visualized): two and seven spots were up- and down-regulated | FC, Fold difference in biofilm: spot 0302 enolase [1, 3]: −3.8 Fold | FC, Fold difference in biofilm: spot 2004 glutamine synthetase [1, 3]: +2.4 Fold | FC, Fold difference in biofilm: spot 4405 6-phosphofructokinase [1, 3]: −2.8 Fold | FC, Fold difference in biofilm: spot 5104 hypothetical protein Smal_0271 [1, 3]: ∇ | FC, Fold difference in biofilm: spot 5105 conserved hypothetical protein [1, 3]: −2.0 Fold | FC, Fold difference in biofilm: spot 5206 Gap [1, 3]: +2.9 Fold | FC, Fold difference in biofilm: spot 5207 hypothetical protein Smal_0271 [1, 3]: −2.4 Fold | FC, Fold difference in biofilm: spot 6103 glutamine synthetase [1, 3]: −2.0 Fold | FC, Fold difference in biofilm: spot 7202 phosphoglycerate mutase 1 family [1, 3]: −3.2 Fold | adhesion of L. monocytogenes Scott A [2]: prevented
